Patent US20110190199A1, “Combination Therapy for Tuberculosis” (priority 2008, published 2011)
≈ marks a conversion by molar mass, not a printed value. Where “and” joins values, the source holds several entries; their conditions need not be identical. Identical values can stand only once. Like-named read-outs stand apart in the source and are kept apart here.

Assays:
[1] = system: Mycobacterium tuberculosis H37Rv; test: MIC by agar dilution on Middlebrook 7H11 agar; format: cell-based; settings: 672 h, 7H11 agar + 10% OADC, 28 days at 37°C, lowest concentration to inhibit at least 99% of bacterial growth
[2] = system: Mycobacterium tuberculosis H37Rv; format: in vivo, mice
[3] = Single-dose and steady-state serum pharmacokinetics in the murine model; format: in vivo, mice
Experimental: To determine the single-dose and steady-state pharmacokinetic profiles of the compound of formula (I) and LZD in the murine model, a sub-study was nested in the above dose-ranging study using mice treated with the compound of formula (I) at 100 mg/kg once-daily or LZD at 130 mg/kg once- or twice-daily. Three mice per group were sacrificed at 0.5, 1, 2, 4, 8 and 24 hours after the first dose of treatment (D1) and at the aforementioned time points with the addition of a 9 hour time point (i.e., 1 hour after the second daily dose) on Day 24 (D24) of treatment. Mice were anesthetized with chloroform and exsanguinated by cardiac puncture. Whole blood was collected on ice and then centrifuged to obtain serum. Acetonitrile was added to the samples before storage in gasketed screwcap tubes at −20° C. D24 samples were collected and processed in the same manner and stored at −20° C. before being sent together with D1 samples to Pfizer (Groton, Conn.) for determination of drug concentrations. The supernatant was injected (10 μL injection volume) onto the LC (Shimadzu SCL-10A, Kyoto, Japan)-MS/MS (Sciex API 3000, Applied Biosystems Group, Foster City, Calif.) using a Hypersil C18 column (5 μm, 50×2.1 mm, Thermo Electron Corp, Waltham, Mass.) and a step gradient consisting of a mobile phase of A: water with 0.05% 5 mM ammonium formate and B: acetonitrile/water/5 mM ammonium formate (80:20:0.05%). The ionization was electrospray positive ion mode. Bioanalytical data were captured using Analyst (Version 1.4.1, Applied Biosystems Group, Foster City, Calif.). Pharmacokinetic calculations were based on mean serum concentrations and performed using the non-compartmental approach (linear trapezoidal rule for AUC calculation with the aid of Watson 7.2 Bioanalytical LIMS [Thermo Electron Corp, Waltham, Mass.)). […] Concentrations of 0 were used for kinetic calculations for all results below the lower limit of quantitation (5 ng/mL).

[4] = system: Mycobacterium tuberculosis H37Rv; test: Example 6: in vivo activity of the combination (lung CFU after 4 and 8 weeks); set-up: species or system mice
[5] = system: Mycobacterium tuberculosis H37Rv; test: Example 8B: eight week dose ranging study (second phase after 4 weeks RHZU25); format: in vivo, mice; set-up: Lung CFU / CFU-U only: unit not given here; settings: for effect of U monotherapy against persisting tubercle bacilli / log reduction with U monotherapy against persisting tubercle bacilli: 4 weeks after initial 4 weeks of RHZU25; for CFU-U only: lung
Experimental: Eighty of the mice from Group 4 (in Example 8A) that had been receiving 25 mg/kg of the compound of formula I (U) along with rifampin(R), isoniazid(H), and pyrazinamide(Z) were evaluated in the second phase of the study. They were assigned to one of the groups described below in Table 6 and the study was continued for an additional 4 weeks (i.e. 8 week results).
As described above, 5 animals served as the control and no further drugs were given. Five were given the combination of rifampin(R) and isoniazid (H), five given isoniazid (H) or rifampin(R) alone. […] Six of these groups were also dosed with rifampin (R). The rifampin and isoniazid was dosed in the same manner and in the same amount as in Example 8A.
At the conclusion of the eight (8) week experiment, all of the animals were sacrificed and CFU lung counts were obtained.

[6] = system: Mycobacterium tuberculosis H37Rv; test: Example 8C: additional dose ranging study (4 and 8 weeks); format: in vivo, mice; settings: lung
Experimental: The protocol described above in Example 8A and 8B was carried out on an alternative occasion. The only substantive changes were the number of animals per group and the initial incubation period.
Testing continued for an additional 4 weeks with 60 of the mice from Test Group 2 immediately above. The mice either received U alone, at varying doses, or the combination of U and R. The following results were obtained.

[7] = system: M. tuberculosis H37Rv; test: Example 9: compound of formula I added to first and second line anti-tuberculosis drugs (survival, lung CFU after 4 weeks); format: in vivo, mice; settings: D0 8.36 ± 0.10
[8] = system: Mycobacterium tuberculosis; settings: cited from earlier work
[9] = 600-625 mg by mouth twice daily; cited from earlier work
[10] = labelled regimen PLUS compound of formula (I) 100 mg/kg/day, INH 25, RIF 10, PZA 150, MXF 100 mg/kg, Day 0 7.37 ± 0.12
[11] = regimen as labelled, INH 25, RIF 10, PZA 150, MXF 100, compound of formula (I) 100 mg/kg, Day 0 7.37 ± 0.12
[12] = Mycobacterium tuberculosis, literature

CC(=O)NC[C@H]1CN(c2ccc(N3CCSCC3)c(F)c2)C(=O)O1 [compound of formula (I), (S)—N-[[3-[3-fluoro-4-(4-thiomorpholinyl)phenyl]-2-oxo-5-oxazolidinyl]methyl]acetamide]
MIC [1]: 0.25 µg/mL | in vivo potency relative to LZD ([2]; 25 mg/kg as active as LZD 130 mg/kg, AUC about 3-fold lower at 100 mg/kg): 12 times | log kill (reduction in mean lung CFU count compared to the baseline value) ([2]; 25 mg/kg, 28 days): 0.78 log10 | mean spleen weight ([2]; 25 mg/kg, after 28 days of treatment, pre-treatment 105±11 mg, untreated 237±16 mg): 113 ± 17 mg | log kill (reduction in mean lung CFU count compared to the baseline value) ([2]; 50 mg/kg, 28 days): 2.21 log10 | Mean log10 CFU count (± SD) on Day 28 ([2]; lung, 25 mg/kg once daily, 5 days per week by gavage, Day 0 7.49 ± 0.11): 6.71 ± 0.28 log10 CFU | Mean log10 CFU count (± SD) on Day 28 ([2]; lung, 25 mg/kg twice daily, Day 0 7.49 ± 0.11): 5.51 ± 0.14 log10 CFU | Mean log10 CFU count (± SD) on Day 28 ([2]; lung, 50 mg/kg once daily, Day 0 7.49 ± 0.11, 50 mg/kg): 5.28 | Mean log10 CFU count (± SD) on Day 28 ([2]; lung, 50 mg/kg once daily, Day 0 7.49 ± 0.11, listed as Compound of Formula (I), 50 mg/kg): 5.28 ± 0.53 log10 CFU | Mean log10 CFU count (± SD) on Day 28 ([2]; lung, 50 mg/kg twice daily, Day 0 7.49 ± 0.11): 4.89 ± 0.27 log10 CFU | Mean log10 CFU count (± SD) on Day 28 ([2]; lung, 100 mg/kg once daily, Day 0 7.49 ± 0.11): 5.07 ± 0.14 log10 CFU | AUC0-24 ([3]; mouse, in vivo, po, 100 mg/kg): 8.74 µg·h/mL | Cmax ([3]; mouse, in vivo, po, 100 mg/kg): 4.32 µg/mL | AUC(0-t) ([3]; mouse, in vivo, po, 100 mg/kg, AUC0-24): 7.33 µg·h/mL | Cmax ([3]; mouse, in vivo, po, 100 mg/kg, Cmax): 6.07 µg/mL | Lung log10 CFU counts (±SD) after treatment with the indicated regimen plus the compound of formula (I) 100 mg/kg/day, Day 28 [4, 10]: 4.72 ± 0.17 log10 CFU | Lung log10 CFU counts (±SD) after treatment with the indicated regimen plus the compound of formula (I) 100 mg/kg/day, Day 56 [4, 10]: 2.70 ± 0.29 log10 CFU | reduction in lung CFU counts from baseline over the first 28 days ([4]; monotherapy, compound of formula (I) 100, INH 25, RIF 10 mg/kg): 2.65 log10 | Lung log10 CFU counts (±SD) after treatment with the indicated regimen, Day 28 [4, 11]: 4.72 log10 CFU | Lung log10 CFU counts (±SD) after treatment with the indicated regimen, Day 56 [4, 11]: 2.70 log10 CFU | effect of U monotherapy against persisting tubercle bacilli ([5]; 12.5 mg/kg): growth-inhibitory effect | effect of U monotherapy against persisting tubercle bacilli ([5]; 25 mg/kg): bacteriostatic effect | log reduction with U monotherapy against persisting tubercle bacilli ([5]; 50 mg/kg): > 0.5 log | log reduction with U monotherapy against persisting tubercle bacilli ([5]; 100 mg/kg): > 1 log | log reduction with U monotherapy against persisting tubercle bacilli ([5]; 160 mg/kg): ~2 log | CFU-U only ([5]; 8 weeks: 4 weeks RHZU25 then 4 weeks U 12.5 mg/kg): 4.99 ± 0.19 | CFU-U only ([5]; 8 weeks: 4 weeks RHZU25 then 4 weeks U 25 mg/kg): 4.26 ± 0.24 | CFU-U only ([5]; 8 weeks: 4 weeks RHZU25 then 4 weeks U 50 mg/kg): 3.56 ± 0.15 | CFU-U only ([5]; 8 weeks: 4 weeks RHZU25 then 4 weeks U 50 mg/kg thrice weekly (3/7)): 4.21 ± 0.26 | CFU-U only ([5]; 8 weeks: 4 weeks RHZU25 then 4 weeks U 100 mg/kg): 2.88 ± 0.34 | CFU-U only ([5]; 8 weeks: 4 weeks RHZU25 then 4 weeks U 160 mg/kg): 2.42 ± 0.31 | CFU Count 8 weeks ([6]; 4 weeks RHZU100 then 4 weeks with U 6.25 mg/kg (alone or with R)): 4.93 ± 0.32 | CFU Count 8 weeks ([6]; 4 weeks RHZU100 then 4 weeks with U 12.5 mg/kg (alone or with R)): 5.30 ± 0.08 | CFU Count 8 weeks ([6]; 4 weeks RHZU100 then 4 weeks with U 25 mg/kg (alone or with R)): 5.27 ± 0.20 | CFU Count 8 weeks ([6]; 4 weeks RHZU100 then 4 weeks with U 50 mg/kg (alone or with R)): 4.59 ± 0.28 | CFU Count 8 weeks ([6]; 4 weeks RHZU100 then 4 weeks with U 100 mg/kg (alone or with R)): 3.86 ± 0.53 | CFU Count 8 weeks ([6]; 4 weeks RHZU100 then 4 weeks with U 160 mg/kg (alone or with R)): 2.90 ± 0.32 | Mean lung log10 CFU count (±) S.D. after 4 weeks of treatment with: Regimen + U 25 mg/kg ([7]; labelled drug PLUS U 25 mg/kg): 7.17 ± 0.23 log10 CFU | Mean lung log10 CFU count (±) S.D. after 4 weeks of treatment with: Regimen + U 100 mg/kg ([7]; labelled drug PLUS U 100 mg/kg, lower limit of detection 3.40): 5.40 ± 0.10 log10 CFU | MIC90 against M. tuberculosis ([8]; stated in the pharmacokinetics section (Barbachyn et al.)): 0.25 µg/mL

CC(=O)NC[C@H]1CN(c2ccc(N3CCOCC3)c(F)c2)C(=O)O1 [LZD, linezolid]
MIC [1]: 0.25 µg/mL | log kill (reduction in mean lung CFU count compared to the baseline value) ([2]; mouse, in vivo): 1.46 log10 | mean spleen weight ([2]; mouse, in vivo): 200 ± 47 mg and 102 ± 5 mg and 190 ± 52 mg | Mean log10 CFU count (± SD) on Day 28 ([2]; mouse, in vivo, 25 mg/kg): 7.55 ± 0.24 log10 CFU | Mean log10 CFU count (± SD) on Day 28 ([2]; mouse, in vivo, 50 mg/kg): 7.33 ± 0.11 log10 CFU | Mean log10 CFU count (± SD) on Day 28 ([2]; mouse, in vivo, 100 mg/kg): 6.75 ± 0.14 log10 CFU | Mean log10 CFU count (± SD) on Day 28 ([2]; mouse, in vivo, 260 mg/kg): 6.03 ± 0.12 log10 CFU | Cmax higher than that obtained in humans ([3]; 100 mg/kg dose in the mouse, based on linear kinetics): approximately 3 times | steady state AUC higher than anticipated steady state AUC in humans ([3]; mouse 130 mg/kg daily vs humans 600-625 mg twice daily): approximately 50% | AUC(0-t) ([3]; mouse, serum, po, 130 mg/kg, serum, Day 1, LZD 130 mg/kg daily oral, read-out: AUC0-24): 164 µg·h/mL | Cmax ([3]; mouse, serum, po, 130 mg/kg, serum, Day 1, LZD 130 mg/kg daily oral, read-out: Cmax): 64.9 µg/mL | AUC(0-t) ([3]; mouse, serum, po, 130 mg/kg, serum, Day 24, LZD 130 mg/kg daily oral, read-out: AUC0-24 (steady state AUC)): 379 µg·h/mL | Cmax ([3]; mouse, serum, po, 130 mg/kg, serum, Day 24, LZD 130 mg/kg daily oral, read-out: Cmax): 58.4 µg/mL | steady state AUC observed in humans [9]: 215 to 294 µg·h/mL | MIC50 [8, 12]: 0.5 µg/mL (≈ 1.48 µM) | MIC90 [8, 12]: 1 µg/mL (≈ 2.96 µM) | MIC range [8, 12]: 0.125 to 1 µg/mL
